Measurements from the NIST ThermoML archive (doi:10.1021/je200145r).

Assay: wn = mass fraction of the nth substance listed
Conditions: 101 kPa, Liquid; for viscosity: Capillary tube (Ostwald / Ubbelohde) method

C1COCCO1 [1,4-dioxane] + CO
Conditions	mass density, 298.15 K [kg/m3]	mass density, 303.15 K [kg/m3]	mass density, 308.15 K [kg/m3]	mass density, 313.15 K [kg/m3]	viscosity, 298.15 K [mPa·s]	viscosity, 303.15 K [mPa·s]	viscosity, 308.15 K [mPa·s]	viscosity, 313.15 K [mPa·s]
w1 = 0.1	811.2	806.4	801.7	796.9	0.55	0.511	0.473	0.432
w1 = 0.2	834.4	828.8	823.4	818.4	0.554	0.517	0.482	0.448
w1 = 0.3	852.5	847.4	842.6	838	0.565	0.527	0.489	0.452
w1 = 0.4	875.1	870.2	865.5	860.6	0.587	0.548	0.508	0.467
